Source: PubChem BioAssay AID588620 (NMMLSC, 2011)
The source made the active and inactive calls.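 How the source made its calls: active means fitted half-maximal concentration below 30 µM for cell fluorescence in pump-free yeast, so likely self-fluorescent; inactive means the rest.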

Test: concentration-dependent intrinsic compound fluorescence, S. cerevisiae AD/pABC3, flow cytometry, Cherry Pick1 hits, artefact control for antifungal efflux pump inhibitor project, dose response (AID 588620);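 further: red emission of unstained cells excited at 488 nm measured in PE-Texas Red channel; cell median fluorescence as percent of DMSO wells so 100% equals vehicle baseline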
Conditions: S. cerevisiae AD/pABC3 compound autofluorescence, flow cytometry; at 33.1 µM (top of the series)

| SMILES | fluorescence response, % of control |
| --- | --- |
| O=c1[nH]c(C2CCN(S(=O)(=O)c3ccccc3C(F)(F)F)CC2)nc2c1nnn2Cc1cccc(F)c1 | 83.7% (inactive) |
| O=C(NCCC1=CCCCC1)C1CCC(CNc2nc(=S)[nH]c3ccccc23)CC1 (stereo not drawn) | 108% (inactive) |
| Clc1ccc(C(c2ccc(Cl)cc2)n2cc[n+](CC(OCc3ccc(Cl)cc3Cl)c3ccc(Cl)cc3Cl)c2)cc1 (stereo not drawn) | 112% (inactive) |
| Cc1ccc(Cn2nnc3c(=O)[nH]c(C4CCN(S(=O)(=O)c5ccccc5)CC4)nc32)cc1 | 87.4% (inactive) |
| CCn1ncc(Br)c1C(=O)Nc1cc(C)cc(C)c1 | 129% (inactive) |
| c1ccc(-c2ccc3c(c2)c2c4n3CCN=C4CCC2)cc1 | 138% (inactive) |
| Cc1ccc(S(=O)(=O)N2CCOCC2)cc1NC(=O)COC(=O)CNC(=O)c1ccccc1 | 102% (inactive) |
| COc1ccc(/C=C2\SC(c3ccc(C)cc3)=NC2=O)cc1OC | 289% (inactive) |
| COc1ccc(C2CC(c3ccccc3C(F)(F)F)=NN2c2ccc(S(N)(=O)=O)cc2)cc1 (stereo not drawn) | 106% (inactive) |
| O=C(CCCc1ccccc1)Nc1cccc([N+](=O)[O-])c1 | 86.2% (inactive) |
| COCCOC(=O)c1c(C)oc2ccc(NS(=O)(=O)c3ccc(F)cc3)cc12 | 90.9% (inactive) |
| Cc1ccc2c(c1)[C@H]1[C@H](CO2)[C@H](c2ccccc2)[C@]2(C)C(=O)Nc3cc(F)c(F)cc3C(=O)N12 | 90.5% (inactive) |
| c1ccc2c(c1)Cc1cc(CN3CCOCC3)ccc1-2 | 109% (inactive) |
| COC(=O)c1ccc(S(=O)(=O)NCc2ccc(OC)cc2)n1C | 96.9% (inactive) |
| Cc1nnc(N/N=C/c2cc([N+](=O)[O-])c(N3CCC(C)CC3)cc2N2CCC(C)CC2)n1N | 97.1% (inactive) |
| COc1ccc(-c2nc3ccccc3c(=O)n2CCOc2ccccc2C)cc1 | 103% (inactive) |
| Cc1ccc(CCNC(=O)CCCn2nc(C)c3c(C)n(-c4ccc(C)cc4)nc3c2=O)cc1 | 101% (inactive) |
| COc1ccc(-c2nc3ccccc3c(=O)n2CCOc2ccc(C)cc2C)cc1 | 113% (inactive) |
| O=C(CSc1nc2nc3c(cc2c(=O)n1-c1ccccc1)CCCC3)Nc1cccc2ccccc12 | 101% (inactive) |
| Cc1c(CCOC(=O)CC23CC4CC(CC(C)(C4)C2)C3)sc[n+]1Cc1ccc([N+](=O)[O-])cc1 | 83.6% (inactive) |

| SMILES | fluorescence response, % of control |
| --- | --- |
| COc1ccc([C@H]2CC(=O)C=C(c3ccnc4ccc(Cl)cc34)C2)cc1 | 92.4% (inactive) |
| NC1=NC[C@@H](Cc2ccc(O)cc2)N1CCCCC1CCCCC1 | 93.4% (inactive) |
| Cc1cc(O)c(C(C)C)cc1C1(c2cc(C(C)C)c(O)cc2C)OC(=O)c2ccccc21 | 99.8% (inactive) |
| COc1ccc(-c2sc3ccccc3c2-c2ccc(OCCN(C)C)cc2)cc1 | 112% (inactive) |
| CCc1ccc(C2=NN(S(C)(=O)=O)C(c3cccs3)C2)cc1 (stereo not drawn) | 113% (inactive) |
| COc1ccc2c(c1)C(=O)N1[C@H]3c4cc(Cl)ccc4OC[C@@H]3[C@H](c3ccccc3)[C@]1(C)C(=O)N2 | 98.5% (inactive) |
| S=C(Nc1ccc(Cl)cc1Cl)N1CCCCC1 | 135% (inactive) |
| CCCCOc1ccc(NC2=NC3(CCCC3)N=C(N)N2)cc1 | 73.8% (inactive) |
| CN(C)CCN(C(=O)c1ccc(S(=O)(=O)N2CCc3ccccc32)cc1)c1nc2ccc(F)cc2s1 | 196% (inactive) |
| Nc1cc2c(cc1C(=O)c1cccc(Br)c1)OCCO2 | 92.7% (inactive) |
| O=C(NC(=S)Nc1ccc2[nH]c(=O)[nH]c2c1)c1cncc(Br)c1 | 102% (inactive) |
| Cc1nn(CC(=O)NCc2cccs2)c(=O)c2nn(-c3ccccc3)c(C)c12 | 99% (inactive) |
| CCCCCCCCCC[N+](C)(C)CC/C=C1/c2ccccc2Sc2ccc(Cl)cc21 | 105% (inactive) |
| C[C@@]12C(=O)Nc3ccc(F)cc3C(=O)N1[C@H]1c3cc(Cl)ccc3OC[C@@H]1[C@@H]2c1ccccc1 | 104% (inactive) |
| COc1cccc(-c2sc3ccc(OC)cc3c2-c2ccc(OCCN3CCCCC3)cc2)c1 | 102% (inactive) |
| CCOc1ccc(C(=O)Nc2cccc(-c3cc4ccccc4oc3=O)c2)cc1[N+](=O)[O-] | 94.4% (inactive) |
| O=C1C(Cc2cccc([N+](=O)[O-])c2)SC(=Nc2ccccc2)N1c1ccccc1 (stereo not drawn) | 116% (inactive) |
| Cc1cccc(NC(=O)c2nc[nH]c2C(=O)N[C@H](C)c2ccccc2)c1 | 92.4% (inactive) |
| COc1cccc(C2CC(c3ccccc3)=NN2S(=O)(=O)c2ccc(C)cc2)c1OC (stereo not drawn) | 108% (inactive) |
| CCN(CC)C(=O)CSc1nnc(-c2ccncc2)n1N | 127% (inactive) |

| SMILES | fluorescence response, % of control |
| --- | --- |
| CCO[C@@H]1OC(C(=O)Nc2ccccc2)=C[C@H](c2ccc(Br)cc2)[C@H]1CCCO | 102% (inactive) |
| O=C(O)CCN1C(=O)/C(=C\c2ccc(-c3nc4ccccc4s3)o2)SC1=S | 102% (inactive) |
| CC1(C)Cc2c(sc(NC(=O)COc3ccc(Cl)cc3Cl)c2C(N)=O)C(C)(C)N1 | 86% (inactive) |
| O=C(c1cc(COc2cccc(C(F)(F)F)c2)on1)N1CCC(c2ccncc2)CC1 | 109% (inactive) |
| CCCCOc1ccc(C(=O)NCC(=O)OCC(=O)c2c(N)n(C)c(=O)n(C)c2=O)cc1 | 89% (inactive) |
| COc1ccc2nc(NC(=O)c3ccoc3C)sc2c1 | 117% (inactive) |
| Cc1ccc(OCc2cc(C(=O)NCC(C)(C)N3CCOCC3)no2)cc1C | 116% (inactive) |
| COc1ccccc1CNS(=O)(=O)c1ccc2c(c1)CC(C)N2C(=O)C1CCC1 (stereo not drawn) | 85.7% (inactive) |
| COCCCn1c(=S)[nH]c2ccc(N3CCOCC3)cc2c1=O | 105% (inactive) |
| O=S(=O)(NCCc1cn2ccccc2n1)c1ccc(F)c(C(F)(F)F)c1 | 118% (inactive) |
| Cc1ccc(CN2C(=O)C(CC(C)C)Nc3ncnc(N4CCN(c5ccccc5)CC4)c32)cc1 (stereo not drawn) | 102% (inactive) |
| CCOc1ccc(S(=O)(=O)N(C(=O)c2ccco2)c2cc3sc(=O)oc3c3ccccc23)cc1 | 92.2% (inactive) |
| COc1cc2c(=O)n(Cc3ccco3)c(=O)n(CC(=O)c3cccc(Br)c3)c2cc1OC | 86.2% (inactive) |
| CCOC(=O)c1cnc(SC)nc1Oc1cccc(NC(=O)c2ccc(Cl)cc2)c1 | 90.9% (inactive) |
| CSCCC(NC(=O)c1ccccc1Cl)C(=O)N1CCN(C(c2ccccc2)c2ccccc2)CC1 (stereo not drawn) | 80.9% (inactive) |
| CC(C)c1ccc(S(=O)(=O)Nc2ccc(O)c(Sc3ncn[nH]3)c2)cc1 | 151% (inactive) |
| COc1cccc(-c2sc3ccc(OC)cc3c2-c2ccc(OCCN3CCOCC3)cc2)c1 | 92.4% (inactive) |
| CCCCn1c(N)c(N(CC(C)C)C(=O)CN2C(=O)NC3(CC(C)CC(C)(C)C3)C2=O)c(=O)[nH]c1=O (stereo not drawn) | 95.1% (inactive) |
